From patent EP0241804A2, “Preserved antacid preparations” (BAYER AG, priority 1986, dated 1987)

Tested on: Testmikroorganismen
Test: Preservative challenge test (BP 1980 / USP XXI) of antacid preparations
Assay type: cell-based
Details: for Ergebnisse von Konservierungstests: Hydrotalcitsuspensionen with the preservative added at various concentrations (Tabelle 2); for Vermehrung von Bakterien und Hefen: Hydrotalcitsuspensionen, also at high preservative concentrations
Description: Der Nachweis der einwandfreien Haltbarmachung von Antacida-Zubereitungen erfolgte mit Hilfe geeigneter Konservierungsbelastungstests wie sie z.B. in der Britischen Pharmakopöe von 198O (British Pharmacopoeia 198O, Addendum 1982, Revised Apendix XVIC: Efficacy of Antimicrobial Preservatives in Pharmaceutical Products) oder der Pharmakopöe der Vereinigten Staaten (The United States Pharmacopeia XXI (1985) Antimicrobial Preservatives Effectiveness,S. 1151-1156) beschrieben werden.
Neben einer Richtlinie der WHO für nichtsterile Produkte, die eine Begrenzung des Keimgehalts in nichtsterilen oralen Arzneimitteln auf 1OOO/ml fordert, gelten unterschiedlich hohe Anforderungen hinsichtlich der Abtötungsrate für bestimmte Testmikroorganismen, je nach Pharmakopöe. Die britische Pharmakopöe verlangt z.B. eine Verminderung der Bakterienkonzentration um 2 Zehnerpotenzen innerhalb von 7 Tagen sowie keine Vermehrung von Hefen und Schimmelpilzen (s. Tab. 1).

| Compound | Ergebnisse von Konservierungstests | Vermehrung von Bakterien und Hefen |
| --- | --- | --- |
| Cc1ccc(C(C)C)c(O)c1 [Thymol, 5-Methyl-2-(1-methylethyl)phenol] | gut konserviert | – |
| C/C=C/C=C/C(=O)O [Sorbinsäure] | unwirksam | Vermehrung von Bakterien und Hefen |
| N=C(NCCCCCCNC(=N)NC(=N)Nc1ccc(Cl)cc1)NC(=N)Nc1ccc(Cl)cc1 [Chlorhexidin] | unwirksam | – |
| O=C(O)c1ccccc1 [Benzoesäure] | unwirksam | Vermehrung von Bakterien und Hefen |
| C=CCc1ccc(O)c(OC)c1 [Eugenol, 2-Methoxy-4-(2-propenyl)phenol] | gut konserviert | – |
| O=CC=Cc1ccccc1 [Zimtaldehyd, 3-Phenyl-2-propenal] | gut konserviert | – |
